System: Sprague-Dawley rats made diabetic with streptozotocin
Test: Pharmacodynamics after subcutaneous injection in a rat model of diabetes mellitus (blood-glucose concentration over time)
Format: in vivo
Conditions: dose equivalent in nanomoles to 15 μg insulin lispro per 300-gram rat, relative to insulin lispro, FIG. 6
Procedure: The dose was 15 μg of insulin lispro per 300-gram rat; doses of the SCIs were equivalent in units of nanomoles per 300-gram rat (i.e., micrograms corrected for respective molecular masses).

How did the “integrated potency (area over the curve)” value turn out when “SCI-4: 57-residue single-chain insulin analogue, C domain EAAAAA, substitutions His^A8, Glu^A14, Asp^B28, Pro^B29; expressed in Pichia pastoris (FVNQHLCGSHLVEALYLVCGERGFFYTDPTEAAAAAGIVEQCCHSICSLEQLENYCN)” was run?
Its value is “essentially identical to that of insulin lispro”.

What about the “offset of action / duration of action (tail of insulin action)” value of the same substance?
The value was “essentially identical to that of insulin lispro”.

What about the onset of action of the same substance?
Its onset of action is “essentially identical to that of insulin lispro”.

Reference: US20220002373A1, “SINGLE-CHAIN INSULIN ANALOGUES WITH POLY-ALANINE C-DOMAIN SUB-SEGMENTS” (CASE WESTERN RESERVE UNIVERSITY, priority 2018, published 2022)
